Source: the NIST ThermoML archive (doi:10.1021/je060406c)
“And” between values parts separate entries of the source, which are not always exact repeats. Identical values can stand only once.

Details: Liquid, Transpiration method

O=Cc1ccccc1 [benzaldehyde]
Details	vapor or sublimation pressure [kPa]
278.4 K	0.04083
282.3 K	0.05524
286.3 K	0.07697
290.3 K	0.09697
294.3 K	0.1372
298.4 K	0.1775
303.2 K	0.246
308.2 K	0.3195
313.2 K	0.4306

O=CCc1ccccc1 [α-tolualdehyde]
Details	vapor or sublimation pressure [kPa]
293.2 K	0.01683
298.1 K	0.02456
303.1 K	0.03724
308.2 K	0.05436
313.7 K	0.0801
317.9 K	0.111
323 K	0.15
328.1 K	0.2162
332.1 K	0.2883
338 K	0.4029
343 K	0.5498

OCCc1ccccc1 [2-phenylethanol]
Details	vapor or sublimation pressure
287.8 K	0.00251 kPa
289.7 K	0.00285 kPa
292.7 K	0.00399 kPa
295.1 K	0.00482 kPa
297.5 K	0.00626 kPa
302.5 K	0.00976 kPa
308.2 K	0.0153 kPa
312.5 K	0.02276 kPa
316.6 K	0.03091 kPa
317.6 K	0.03285 kPa
322.7 K	0.05022 kPa and 0.05028 kPa
322.8 K	0.05055 kPa
327.8 K	0.06913 kPa
332.8 K	0.09839 kPa
337.9 K	0.1395 kPa
342.9 K	0.2097 kPa
348.1 K	0.2794 kPa
353.2 K	0.3777 kPa
358.3 K	0.5243 kPa
363.3 K	0.6922 kPa

O=Cc1ccco1 [2-furaldehyde]
Details	vapor or sublimation pressure [kPa]
276.7 K	0.0525
281.5 K	0.0746
285.4 K	0.1011
288.4 K	0.1293
290.6 K	0.1516
293.2 K	0.182
295.5 K	0.2088
298.2 K	0.2589
300.5 K	0.3002
303.1 K	0.3652
308.2 K	0.4911
312.2 K	0.6213
315.1 K	0.7411
317.9 K	0.9108
320.1 K	1.04
323.4 K	1.256
